Measured values: patent US11596639B2, “Substituted indole Mcl-1 inhibitors” (Vanderbilt University, priority 2016, dated 2023)
Read-outs that look alike come from different tables or passages of the source.

Experiments:
Mcl-1 = Mcl-1 (Homo sapiens (Human), UniProt Q07820); test: TR-FRET binding assay, FITC-Bak peptide and MBP-tagged Mcl-1; details: read-out: Ki for Inhibition of Mcl-1 by TR-FRET assay
Description: Compounds are diluted in DMSO in a 16-point, semilog serial dilution scheme. […] The plate was mixed and incubated for 3 hours at room temperature. […] TR-FRET signal is plotted and IC50 and Ki values are calculated in the same manner as the fluorescence polarization anisotropy based competition assays.

[1] = test system: H929 human cancer cell lines; test: Cellular viability / proliferation (Cell TiterGlo, 72 h); assay type: cell-based
How it was run: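 Compounds were added as 2-fold serial dilutions from 50 μM (final DMSO <1%) to H929 cells seeded 1,000 per well in 10% FBS medium one day earlier.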

[2] = Homo sapiens, NCI-H929, 72 h, read-out: GI50 on cellular proliferation of H929 human cancer cell lines, H929 cells, 72 h, Cell TiterGlo, 10% FBS

Chain of Mcl-1 (Q07820 172-327): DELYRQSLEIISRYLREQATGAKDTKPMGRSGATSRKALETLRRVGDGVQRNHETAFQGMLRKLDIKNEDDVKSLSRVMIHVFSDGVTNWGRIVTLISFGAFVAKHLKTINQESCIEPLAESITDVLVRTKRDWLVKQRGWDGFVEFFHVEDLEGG

Compound | Ki (Mcl-1) [nM] | GI50 [1, 2] [nM] | GI50 ([1]; H929 cells, 72 h, Cell TiterGlo, 10% FBS, read-out: GI50 on cellular proliferation of H929 human cancer cell lines) [nM]
Cc1cccc(Cn2c(C(=O)O)cc3cc(OCCN(C)C)cc(N4C[C@@H](C)n5c(c(CCCOc6cc(C)c(Cl)c(C)c6)c6ccc(Cl)c(-c7c(C)ncnc7C)c65)C4=O)c32)n1 [Example 566, (R)-7-(7-chloro-10-(3-(4-chloro-3,5-dimethylphenoxy)propyl)-6-(4,6-dimethylpyrimidin-5-yl)-4-methyl-1-oxo-3,4-dihydropyrazino[1,2-a]indol-2(1H)-yl)-5-(2-(dimethylamino)ethoxy)-1-((6-methylpyridin-2-yl)methyl)-1H-indole-2-carboxylic acid] | < 0.2 | 410 | –
COCCn1c(C(=O)O)cc2cc(COC)cc(N3C[C@@H](C)n4c(c(CCCOc5cc(C)c(Cl)c(C)c5)c5ccc(Cl)c(-c6c(C)nn(C)c6C)c54)C3=O)c21 [Example 677, (R)-7-(7-chloro-10-(3-(4-chloro-3,5-dimethylphenoxy)propyl)-4-methyl-1-oxo-6-(1,3,5-trimethyl-1H-pyrazol-4-yl)-3,4-dihydropyrazino[1,2-a]indol-2(1H)-yl)-1-(2-methoxyethyl)-5-(methoxymethyl)-1H-indole-2-carboxylic acid] | < 0.2 | < 200 | –
COCCn1cc(N2C[C@@H](C)n3c(c(CCCOc4cc(C)c(Cl)c(C)c4)c4ccc(Cl)c(-c5c(C)nn(C)c5C)c43)C2=O)c2cc(-c3ncn(CCN4CCOCC4)n3)ccc21 [Example 615, (R)-7-Chloro-10-(3-(4-chloro-3,5-dimethylphenoxy)propyl)-2-(1-(2-methoxyethyl)-5-(1-(2-morpholinoethyl)-1H-1,2,4-triazol-3-yl)-1H-indol-3-yl)-4-methyl-6-(1,3,5-trimethyl-1H-pyrazol-4-yl)-3,4-dihydropyrazino[1,2-a]indol-1(2H)-one] | 9.6 | 370 | –
Cc1cc(OCCCc2c3n(c4c(-c5c(C)nn(C)c5C)c(Cl)ccc24)[C@H](C)CN(c2cn(C[C@@H]4CCCN4C)c4ccc(C(=O)O)cc24)C3=O)cc(C)c1Cl [Example 690, 3-((R)-7-chloro-10-(3-(4-chloro-3,5-dimethylphenoxy)propyl)-4-methyl-1-oxo-6-(1,3,5-trimethyl-1H-pyrazol-4-yl)-3,4-dihydropyrazino[1,2-a]indol-2(1H)-yl)-1-(((S)-1-methylpyrrolidin-2-yl)methyl)-1H-indole-5-carboxylic acid] | 0.26 | 330 | –
Cc1cc(OCCCc2c3n(c4c(-c5c(C)nn(C)c5C)c(Cl)ccc24)[C@H](C)CN(c2cc(OC4CC[N+](C)(C)C4)cc4cc(C(=O)O)n(C)c24)C3=O)cc(C)c1Cl (stereo partly drawn) [Example 513, 3-((2-Carboxy-7-((R)-7-chloro-10-(3-(4-chloro-3,5-dimethylphenoxy)propyl)-4-methyl-1-oxo-6-(1,3,5-trimethyl-1H-pyrazol-4-yl)-3,4-dihydropyrazino[1,2-a]indol-2(1H)-yl)-1-methyl-1H-indol-5-yl)oxy)-1,1-dimethylpyrrolidin-1-ium 2,2,2-trifluoroacetate] | < 0.2 | 5300 | –
Cc1cc(OCCCc2c3n(c4c(-c5c(C)nn(C)c5C)c(Cl)ccc24)[C@H](C)CN(c2cn(Cc4cccnc4)c4ccc(C(=O)O)cc24)C3=O)cc(C)c1Cl [Example 563, (R)-3-(7-chloro-10-(3-(4-chloro-3,5-dimethylphenoxy)propyl)-4-methyl-1-oxo-6-(1,3,5-trimethyl-1H-pyrazol-4-yl)-3,4-dihydropyrazino[1,2-a]indol-2(1H)-yl)-1-(pyridin-3-ylmethyl)-1H-indole-5-carboxylic acid] | < 0.2 | 1500 | –
Cc1cc(OCCCc2c3n(c4c(-c5c(C)nn(C)c5C)c(Cl)ccc24)[C@H](C)CN(c2cn(CCN4CCN(C)C(=O)C4)c4ccc(-c5ncn(C)n5)cc24)C3=O)cc(C)c1Cl [Example 603, (R)-7-Chloro-10-(3-(4-chloro-3,5-dimethylphenoxy)propyl)-4-methyl-2-(5-(1-methyl-1H-1,2,4-triazol-3-yl)-1-(2-(4-methyl-3-oxopiperazin-1-yl)ethyl)-1H-indol-3-yl)-6-(1,3,5-trimethyl-1H-pyrazol-4-yl)-3,4-dihydropyrazino[1,2-a]indol-1(2H)-one] | 0.89 | < 200 | –
Cc1cc(OCCCc2c3n(c4c(-c5c(C)nn(C)c5C)c(Cl)ccc24)[C@H](C)CN(c2cc(CCN4CCOCC4)cc4cc(C(=O)O)n(C)c24)C3=O)cc(C)c1Cl [Example 715, (R)-7-(7-chloro-10-(3-(4-chloro-3,5-dimethylphenoxy)propyl)-4-methyl-1-oxo-6-(1,3,5-trimethyl-1H-pyrazol-4-yl)-3,4-dihydropyrazino[1,2-a]indol-2(1H)-yl)-1-methyl-5-(2-morpholinoethyl)-1H-indole-2-carboxylic acid] | < 0.2 | < 200 | –
COCCn1cc(N2C[C@@H](C)n3c(c(CCCOc4cc(C)c(Cl)c(C)c4)c4ccc(Cl)c(-c5c(C)nn(C)c5C)c43)C2=O)c2cc(-c3ncn(CCN4CCN(C)CC4)n3)ccc21 [Example 602, (R)-7-Chloro-10-(3-(4-chloro-3,5-dimethylphenoxy)propyl)-2-(1-(2-methoxyethyl)-5-(1-(2-(4-methylpiperazin-1-yl)ethyl)-1H-1,2,4-triazol-3-yl)-1H-indol-3-yl)-4-methyl-6-(1,3,5-trimethyl-1H-pyrazol-4-yl)-3,4-dihydropyrazino[1,2-a]indol-1(2H)-one] | 5.9 | 430 | –
Cc1cc(OCCCc2c3n(c4c(-c5c(C)nn(C)c5C)c(Cl)ccc24)[C@H](C)CN(c2cc(NC(=O)CN4CCCCC4)cc4c(C(=O)O)cn(C)c24)C3=O)cc(C)c1Cl [Example 533, (R)-7-(7-Chloro-10-(3-(4-chloro-3,5-dimethylphenoxy)propyl)-4-methyl-1-oxo-6-(1,3,5-trimethyl-1H-pyrazol-4-yl)-3,4-dihydropyrazino[1,2-a]indol-2(1H)-yl)-1-methyl-5-(2-(piperidin-1-yl)acetamido)-1H-indole-3-carboxylic acid] | 0.69 | 1300 | –
Cc1cc(OCCCc2c3n(c4c(-c5c(C)nn(C)c5C)c(Cl)ccc24)[C@H](C)CN(c2cc(COCCN(C)C)cc4cc(C(=O)O)n(C)c24)C3=O)cc(C)c1Cl [Example 614, (R)-7-(7-chloro-10-(3-(4-chloro-3,5-dimethylphenoxy)propyl)-4-methyl-1-oxo-6-(1,3,5-trimethyl-1H-pyrazol-4-yl)-3,4-dihydropyrazino[1,2-a]indol-2(1H)-yl)-5-((2-(dimethylamino)ethoxy)methyl)-1-methyl-1H-indole-2-carboxylic acid] | < 0.2 | 690 | –
Cc1cc(OCCCc2c3n(c4c(-c5c(C)nn(C)c5C)c(Cl)ccc24)[C@H](C)CN(c2cc(N(C)C)cc4cc(C(=O)O)n(C)c24)C3=O)cc(C)c1Cl [Example 683, (R)-7-(7-chloro-10-(3-(4-chloro-3,5-dimethylphenoxy)propyl)-4-methyl-1-oxo-6-(1,3,5-trimethyl-1H-pyrazol-4-yl)-3,4-dihydropyrazino[1,2-a]indol-2(1H)-yl)-5-(dimethylamino)-1-methyl-1H-indole-2-carboxylic acid] | 0.21 | 250 | –
Cc1cc(OCCCc2c3n(c4c(-c5c(C)nn(C)c5C)c(Cl)ccc24)[C@H](C)CN(c2cc(NCCN(C)C)cc4c(C(=O)O)cn(C)c24)C3=O)cc(C)c1Cl [Example 498, (R)-7-(7-chloro-10-(3-(4-chloro-3,5-dimethylphenoxy)propyl)-4-methyl-1-oxo-6-(1,3,5-trimethyl-1H-pyrazol-4-yl)-3,4-dihydropyrazino[1,2-a]indol-2(1H)-yl)-5-((2-(dimethylamino)ethyl)amino)-1-methyl-1H-indole-3-carboxylic acid] | 0.58 | 1900 | –
COc1ccc(N2C[C@@H](C)n3c(c(CCCOc4cc(C)c(Cl)c(C)c4)c4ccc(Cl)c(-c5c(C)ncnc5C)c43)C2=O)c2c1cc(C(=O)O)n2Cc1cccc(C)n1 [Example 477, (R)-7-(7-Chloro-10-(3-(4-chloro-3,5-dimethylphenoxy)propyl)-6-(4,6-dimethylpyrimidin-5-yl)-4-methyl-1-oxo-3,4-dihydropyrazino[1,2-a]indol-2(1H)-yl)-4-methoxy-1-((6-methylpyridin-2-yl)methyl)-1H-indole-2-carboxylic acid] | < 0.2 | < 200 | –
Cc1cc(OCCCc2c3n(c4c(-c5c(C)nn(C)c5C)c(Cl)ccc24)[C@H](C)CN(c2cc(CCN4CCCCC4)cc4cc(C(=O)O)n(C)c24)C3=O)cc(C)c1Cl [Example 723, (R)-7-(7-chloro-10-(3-(4-chloro-3,5-dimethylphenoxy)propyl)-4-methyl-1-oxo-6-(1,3,5-trimethyl-1H-pyrazol-4-yl)-3,4-dihydropyrazino[1,2-a]indol-2(1H)-yl)-1-methyl-5-(2-(piperidin-1-yl)ethyl)-1H-indole-2-carboxylic acid] | < 0.2 | < 200 | –
Cc1cc(OCCCc2c3n(c4c(-c5c(C)nn(C)c5C)c(Cl)ccc24)[C@H](C)CN(c2cn(Cc4cscn4)c4ccc(C(=O)O)cc24)C3=O)cc(C)c1Cl [Example 532, (R)-3-(7-Chloro-10-(3-(4-chloro-3,5-dimethylphenoxy)propyl)-4-methyl-1-oxo-6-(1,3,5-trimethyl-1H-pyrazol-4-yl)-3,4-dihydropyrazino[1,2-a]indol-2(1H)-yl)-1-(thiazol-4-ylmethyl)-1H-indole-5-carboxylic acid] | 0.2 | 390 | –
(R)-7-Chloro-10-(3-(4-chloro-3,5-dimethylphenoxy)propyl)-4-methyl-2-(5-(1-methyl-1H-1,2,4-triazol-3-yl)-1-(2-morpholinoethyl)-1H-indol-3-yl)-4-(1,3,5-trimethyl-1H-pyrazol-4-yl)-3,4-dihydropyrazino[1,2-a]indol-1(2H)-one [Example 583] | 0.73 | – | < 200
